Assay results from patent US20100016211A1, “Treatment of Melanoma With Alpha Thymosin Peptides” (SciClone Pharmaceuticals, Inc., priority 2007, published 2010).
Ends that are not written are not given here.

Experiments:
[1] = system: stage IV metastatic melanoma; assay: Phase 2 multi-center open-label study: progression free survival (PFS); format: in vivo, human; settings: regimen with TA1 but without IFN alpha vs both IFN alpha and TA1
Source text: (§1) This phase 2 multi-center, open-label study enrolled 488 patients with stage IV metastatic melanoma at 64 European clinical sites. The trial was designed to evaluate different dose levels of Thymosin alpha 1 (TA1). This study was in combination with DTIC chemotherapy, with and without low-dose interferon alpha, as a first-line treatment for malignant melanoma. Most patients enrolled in the trial had liver and other metastases and the remaining patients had lung metastases and skin or lymph node metastases.
(§2) A total of 488 patients (pts) (63% M1; 24% M1b; 13% M1a) were randomised into the study from 64 European sites. Demographic and baseline characteristics are shown in table 1 wherein DIT=DTIC/IFN alpha,/TA1, DT=DTIC/TA1, T=TA1, DI=DTIC/IFN alpha and ECOG PS is a patient's health performance status (PS) according to the Eastern Cooperative Oncology Group (ECOG).

Melan-A/MART-1 = assay: Melanoma antigen expression in B-16 cells by confocal microscopy; format: cell-based, mouse
Source text: (§3) Thymosin alpha 1 was able to up-regulate melanoma-specific antigens melan-A and MART-1 on the cell surface of mouse B-16 melanoma cells.

[2] = Phase 2 multi-center open-label study: adverse events and tolerability; parameters: species or system human; settings: in vivo
Source text: as §1, §2

[3] = system: stage IV metastatic melanoma; assay: Phase 2 multi-center open-label study: overall survival (OS); format: in vivo, human; settings: regimen with TA1 but without IFN alpha vs both IFN alpha and TA1
Source text: as §1, §2

Gp100 = assay: Melanoma antigen expression in B-16 cells by confocal microscopy; format: cell-based; settings: B-16 mouse melanoma cells, 24 h treatment, 50 μg/ml; control: +
Source text: as §3

[4] = system: stage IV metastatic melanoma; assay: Phase 2 multi-center open-label study: tumor response (CR, PR, RR); format: in vivo, human; settings: regimen with TA1 but without IFN alpha vs both IFN alpha and TA1
Source text: as §1, §2

For “thymosin alpha 1 (Ac-SDAAVDTSSEITTKDLKEKKEVVEEAEN; UniProt P06454 2-29, looked up)”, the “Progression-free survival (in words)” value [1] was “higher progression-free survival”, the Melan-A/MART-1 expression (Melan-A/MART-1; B-16 mouse melanoma cells, 24 h treatment, 50 μg/ml, control: +) was “++ ↑” and the “Melanoma-specific antigens melan-A and MART-1 on the cell surface (in words)” value (Melan-A/MART-1; mouse B-16 melanoma cells) was “up-regulate”. The “Serious adverse events attributed to the drug (in words)” value [2] was “no serious adverse events attributed to the drug”, the “Median survival rate (in words)” value [3] was “higher median survival rate” and the Gp100 expression (Gp100) was “± ↓”. The “Overall tumor response (in words)” value [4] was “higher overall tumor response”.
